Assay results reported in patent US7652057B2, “Pyrazolones as 11b-HSD1 inhibitors for diabetes” (Hoffman-La Roche Inc., priority 2005, dated 2010).
pIC50: −log10 of the molar value.

Biological target: T1, human 11beta-HSD1 (Homo sapiens, UniProt P28845)
T1 construct: made in house; host or cells: HEK293 cells (ATCC CRL-1573), transient transfection with a pcDNA3 construct; microsomal fraction
Assay: Microsome assay (cortisone to cortisol conversion, ELISA)
Format: biochemical
Conditions: microsomes from HEK293 cells transiently expressing human 11beta-HSD1; Cortisone 50-200 nM, NADPH 1 mM, 60 min at 37° C.; read-out: h 11-beta-HSD 1 IC50
Procedure: The cDNA encoding the human 11beta-HSD1 protein was cloned into the expression vector pcDNA3 ([…]). This construct (for details see Alex Odermatt et al.; J Biol Chem., 1999, Vol. 274, Issue 40, 28762-28770) was used to transiently express the protein in HEK293 cells (ATCC number: CRL-1573, described in Graham, F. L., Smiley, J., Russell, W. C., Nairn, R.; (1977)) using lipofectamine. 48 h after transfection cells were washed twice with ice-cold PBS (Phosphate buffered Saline). To 1 volume of cell suspension in PBS 2 volumes of ice-cold lysis buffer (50 mM Tris; pH7.5; 1 mM EDTA; 100 mM NaCl) were added. The cells were lysed by Potter-homogenization (20 strokes). The resulting homogenate was sonicated wit a tip sonicator (10% output; 2×30 sec.) and cleared by a low speed centrifugation (10 min×9000 g; 4° C.). The microsomal fraction was collected by a high speed centrifugation (60 min×110'000 g). […]
Microsomes isolated from HEK293 cells transiently expressing human 11beta-HSD1 (for details see above) were incubated in assay buffer (100 mM NaCl; 1 mM EDTA; 1 mM EGTA; 1 mM MgCl; 250 mM Sucrose; 20 mM Tris pH 7.4; Cortisone 50-200 nM and NADPH 1 mM) together with different concentrations of test substances. […] The amount of Cortisol produced in this assay was determined using a commercially available, ELISA-based Cortisol-detection kit (Distributed by Assay Design, Inc.). […]

T1 sequence (P28845 whole entry): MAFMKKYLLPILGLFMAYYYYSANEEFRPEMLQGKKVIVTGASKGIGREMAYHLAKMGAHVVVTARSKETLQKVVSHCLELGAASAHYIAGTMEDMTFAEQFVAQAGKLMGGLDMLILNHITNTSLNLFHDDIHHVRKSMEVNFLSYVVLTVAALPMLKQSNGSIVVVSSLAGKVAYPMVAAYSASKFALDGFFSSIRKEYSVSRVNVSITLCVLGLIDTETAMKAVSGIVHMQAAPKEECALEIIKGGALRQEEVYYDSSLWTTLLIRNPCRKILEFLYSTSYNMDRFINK

SMILES	pIC50
Cc1c(C23CC4CC(CC(C4)C2)C3)c(=O)n2n1CCCCC2 [Example 51, 2-adamantan-1-yl-3-methyl-6,7,8,9-tetrahydro-5H-pyrazolo[1,2-a][1,2]diazepin-1-one]	6.88
Cn1c(C2CC2)c(C2CC2)c(=O)n1-c1ccccc1 [Example 1, 4,5-Dicyclopropyl-1-methyl-2-phenyl-1,2-dihydro-pyrazol-3-one]	7.68
